Laboratory results reported in paper PMC9600172, “N-Succinyltransferase Encoded by a Cryptic Siderophore Biosynthesis Gene Cluster in Streptomyces Modifies Structurally Distinct Antibiotics” (mBio, 2022).
In brackets after ≈: the same amount, converted by molar mass. Like-named read-outs stand apart in the source and are kept apart here.

Key:
Set-up in all cases: Broth microdilution MIC following CLSI protocol, bacterial growth inhibition, at Medina Foundation
[1] = tested on: T1, E. faeciumVS; assay: organism not typed
T1 construct: VS (vancomycin-susceptible)
Description: (§1) Testing of antimicrobial activities of desertomycin A and X was done by disk diffusion assay using Bacillus subtilis 164, Escherichia coli DH5a, and Saccharomyces cerevisiae BY4742 as test organisms. […] In vitro susceptibility for desertomycin A was determined at Medina Foundation (Granada, Spain) by the broth microdilution method following the Clinical and Laboratory Standards Institute protocol ([34]) using bacterial strains from the company’s strain collection (Table S4). […] In order to properly assess antibiotic activity of desertomycin A, it was tested, along with some clinically relevant antibiotics, on a panel of Gram-positive and Gram-negative bacteria using the broth microdilution method. […] This can be explained by different physiological conditions of bacterial cultures on the solid agar medium (initial disk assay) and in [compound left out] cultures (CLSI method).

[2] = tested on: T2, E. faeciumVR; assay: organism not typed
T2 construct: VR (vancomycin-resistant)
Description: as §1

[3] = tested on: T3, Staphylococcus aureus MRSA MB5393; assay: microbe, parasite or virus in culture
T3 construct: MB5393 (MRSA)
Description: as §1

[4] = tested on: T4, Staphylococcus aureus MSSA MB2865; assay: microbe, parasite or virus in culture
T4 construct: MB2865 (MSSA)
Description: as §1

[5] = tested on: T5, S. mutans ATCC25175; assay: microbe, parasite or virus in culture; settings: Streptococcus mutans
T5 construct: ATCC 25175

[6] = tested on: T3, Staphylococcus aureus MRSA MB5393; assay: microbe, parasite or virus in culture; remark: listed apart in the source
Description: as §1, with “liquid” for “[compound left out]”

[7] = tested on: T4, Staphylococcus aureus MSSA MB2865; assay: microbe, parasite or virus in culture; remark: listed apart in the source
Description: as §1, with “liquid” for “[compound left out]”

[8] = tested on: T1, E. faeciumVS; assay: organism not typed; remark: listed apart in the source
Description: as §1, with “liquid” for “[compound left out]”

[9] = tested on: T2, E. faeciumVR; assay: organism not typed; remark: listed apart in the source
Description: as §1, with “liquid” for “[compound left out]”

| Structure (SMILES) | MIC [1] [µg/mL] | MIC [2] [µg/mL] | MIC [3] [µg/mL] | MIC [4] [µg/mL] | MIC [5] [µg/mL] | MIC [6] [µg/mL] | MIC [7] [µg/mL] | MIC [8] [µg/mL] | MIC [9] [µg/mL] |
| --- | --- | --- | --- | --- | --- | --- | --- | --- | --- |
| C[C@H]1[C@H](NC(=O)/C(=N\OC(C)(C)C(=O)O)c2csc(N)n2)C(=O)N1S(=O)(=O)O [Aztreonam] | > 128 | > 128 | > 128 | > 128 | – | – | – | – | – |
| O=C(O)c1cn(C2CC2)c2cc(N3CCNCC3)c(F)cc2c1=O [Ciprofloxacin] | > 128 | 16 (≈ 48.3 µM) | 0.5 (≈ 1.51 µM) | < 0.25 | – | – | – | – | – |
| CC1=CCCC(C)C(O)C(C)C(O)CCC=CC(C)C(O)C=CC(C)C(O)C(C)=CC(O[C@H]2O[C@H](CO)[C@@H](O)[C@H](O)[C@@H]2O)C(O)CC(O)CC(O)CC(O)C(C)C(O)C(C)C(O)CC(O)CC(O)C=CCC(C(C)C(O)CCCN)OC1=O (stereo partly shown) [Desertomycin A] | 64 (≈ 53.7 µM) | 128 (≈ 107 µM) | 64 (≈ 53.7 µM) | 32 (≈ 26.8 µM) | 32 (≈ 26.8 µM) | – | – | – | – |
| CNC(C)[C@@H]1CC[C@@H](N)[C@@H](O[C@H]2[C@H](O)[C@@H](O[C@H]3OC[C@](C)(O)[C@H](NC)[C@H]3O)[C@H](N)C[C@@H]2N)O1 (stereo partly shown) [Gentamicin] | – | – | – | – | – | < 0.25 | 1 (≈ 2.09 µM) | > 128 | 32 (≈ 67 µM) |
| C[C@@H](O)[C@H]1C(=O)N2C(C(=O)O)=C(SCCNC=N)C[C@H]12 [Imipenem] | > 128 | > 128 | 8 (≈ 26.7 µM) | < 0.25 | – | – | – | – | – |
| C[C@@H](O)[C@H]1C(=O)N2C(C(=O)O)=C(S[C@@H]3CN[C@H](C(=O)N(C)C)C3)[C@H](C)[C@H]12 [Meropenem] | > 128 | > 128 | 8 (≈ 20.9 µM) | < 0.25 | – | – | – | – | – |
| CC1(C)S[C@@H]2[C@H](NC(=O)Cc3ccccc3)C(=O)N2[C@H]1C(=O)O [Penicillin G] | > 128 | > 128 | 16 (≈ 47.8 µM) | 16 (≈ 47.8 µM) | – | – | – | – | – |
| CO[C@H]1/C=C/O[C@@]2(C)Oc3c(C)c(O)c4c(O)c(c(/C=N/N5CCN(C)CC5)c(O)c4c3C2=O)NC(=O)/C(C)=C\C=C\[C@H](C)[C@H](O)[C@@H](C)[C@@H](O)[C@@H](C)[C@H](OC(C)=O)[C@@H]1C [Rifampicin] | 8 (≈ 9.72 µM) | 16 (≈ 19.4 µM) | 0.5 (≈ 0.608 µM) | 0.5 (≈ 0.608 µM) | – | – | – | – | – |
| CN[C@H](CC(C)C)C(=O)N[C@H]1C(=O)N[C@@H](CC(N)=O)C(=O)N[C@H]2C(=O)N[C@H]3C(=O)N[C@H](C(=O)N[C@H](C(=O)O)c4cc(O)cc(O)c4-c4cc3ccc4O)[C@H](O)c3ccc(c(Cl)c3)Oc3cc2cc(c3O[C@@H]2O[C@H](CO)[C@@H](O)[C@H](O)[C@H]2O[C@H]2C[C@](C)(N)[C@H](O)[C@H](C)O2)Oc2ccc(cc2Cl)[C@H]1O [Vancomycin] | 16 (≈ 11 µM) | > 128 | 8 (≈ 5.52 µM) | 2 (≈ 1.38 µM) | – | – | – | – | – |
